Laboratory results from patent US20100099630A1, “Method for improving ventilatory efficiency” (priority 2004, published 2010).

How the values were obtained:
Assay type in all cases: in vivo, human
[1] = test system: patients having CHF; assay: Ventilatory efficiency during cardiopulmonary exercise testing, CHF patients
Method: Ventilatory efficiency has been critically shown to be the most powerful, independent predictor of CHF patient survival. Ventilatory efficiency (VE) is determined by the linear, submax relationship between Minute Ventilation (V) and carbon dioxide output (VCO2), V being on the “y axis” and the linear slope being determined using the linear regression model, y=a+bx, “b” representing the slope. The steeper the slope, the worse the ventilation efficiency of the patient. As an exemplar cohort of patients with reduced ventilatory efficiency, patients suffering from CHF were recruited. Patients having CHF were selected according to the following criteria: • Male and female 48-84 years of age. • Ejection fraction 30-72% • NY Class III-IV (severe condition). • Test and control groups matched for pre-operative volume status, cardiac medication, measured risk assessment. The test group was administered D-ribose, 15 grams tid for eight weeks; the controls received 15 grams Dextrose tid. All patients in this group underwent repeated cardiopulmonary exercise using a four-minute sub-maximal step protocol. Patients were tested on a step apparatus. Others in the study were tested on a treadmill with varied grade or on drug-driven exercise simulation for those patients unable to use the other two devices. Symptom-limited peak exercise performance with at least 80-85% of age related maximal heart rate was attempted with each patient. Upper extremity blood pressure was obtained at every two minutes and also at peak exercise. Patients were tested on a treadmill with varying grade, on a step apparatus or with simulated drug-driven exercise simulation for those patients unable to exercise physically. VCO2 and VO2max before and after exercise was measured and VE calculated. The methodology is described in Circulation: www.circulationaha.org Ponikowski et al. Ventilation in Chronic Heart Failure, Feb. 20, 2001, the teachings of which are incorporated by reference. Ventilatory efficiency, VO2 and O2 pulse were assessed up to the anaerobic threshold at baseline and again at eight weeks. Weber function class was also determined based on VO2 at the anaerobic threshold (AT). The results for the first group of test patients (2 females and 13 males) are summarized in Table I. “R” designates D-ribose. Each patient acted as his or her control, that is, results after ribose administration were compared to baseline results. VO2 efficiency is the O2 uptake per unit time. O2 pulse is a measurement of the heart stroke volume.

[2] = test system: representative patients (coronary artery disease / CHF cohort); assay: Exercise testing of representative individual patients (treadmill, step test, drug-driven simulated exercise)
Method: Patients were tested on a treadmill with varying grade, on a step apparatus or with simulated drug-driven exercise simulation for those patients unable to exercise physically. VCO2 and VO2max before and after exercise was measured and VE calculated. The methodology is described in Circulation: www.circulationaha.org Ponikowski et al. Ventilation in Chronic Heart Failure, Feb. 20, 2001, the teachings of which are incorporated by reference. Ventilatory efficiency, VO2 and O2 pulse were assessed up to the anaerobic threshold at baseline and again at eight weeks. Weber function class was also determined based on VO2 at the anaerobic threshold (AT). The results for the first group of test patients (2 females and 13 males) are summarized in Table I. “R” designates D-ribose. Each patient acted as his or her control, that is, results after ribose administration were compared to baseline results. VO2 efficiency is the O2 uptake per unit time. O2 pulse is a measurement of the heart stroke volume. A person, normal weight, was diagnosed with blockage of the coronary arteries with stable angina, not yet progressing to congestive heart failure. […] Using a treadmill, with incremental increase in grade, their VO2 max and VCO2 were determined. Following eight weeks of ribose administration of five grams four times a day, they were retested under the same conditions. Plotting a regression analysis of VO2 versus log V, the VE slope decreased from 60.2 to 45.5. It is considered that a slope of 36.9 or below indicates impairment of ventilatory efficiency. Therefore, while this patient was not in the normal range of ventilatory efficiency, improvement was marked. A second patient, a person of normal weight, self administered five grams of ribose four times a day for eight weeks. At the beginning of the study, their VE slope was 55.7 following nine minutes of submaximal exercise. At the end of the study, their VE slope had decreased to 45.2. This patient also was tested on the step test. The initial test was rated as “good” and the second test was subjectively considered to be “great.” A third patient, an obese person, was on nasal oxygen and was tested with drug-driven simulated exercise. […] Although their VE was now in the normal range, the test results, although improved were not subjectively rated as “good”.

[3] = test system: patient with rheumatoid lung; assay: Ventilatory efficiency in rheumatoid lung, case report; conditions: person, ribose approximately five grams two to three times a day, within a month
From the text: A person developed rheumatoid arthritis in the 1970's. By 1988, they began to show symptoms of rheumatoid lung, began the use of rescue inhalers such as Albuterol® inhaler and was hospitalized for respiratory distress three times in the next five years. At that point, they were prescribed Advair® steroid inhaler, which relieved their symptoms considerably, although they still required a rescue inhaler several times per week. In 2002, they began the administration of ribose, approximately five grams two to three times a day.

[4] = test system: patients presenting with chronic obstructive pulmonary disease; assay: Pulmonary function during moderate sub-maximum step exercise, COPD patients; conditions: for VD/VT: post ribose five grams four times a day; for VD/VT / VT/RR / VCO2 / VTBTPS (tidal volume) / VT/ti (inspiratory drive): eight weeks; for VT/RR / VCO2 / VTBTPS (tidal volume) / VT/ti (inspiratory drive): post ribose
Method: Four patients presenting with chronic obstructive pulmonary disease were tested for various parameters of pulmonary function as described in Example 1. Baseline measurements of pulmonary function were taken during moderate, sub-maximum step exercise. Patients were instructed to self-administer five grams of ribose four times a day. After eight weeks, pulmonary function was again measured during moderate exercise. In Table II, the units are: • VD=volume of the dead space; VT=tidal volume in liters per minute. The ratio VD/VT can be expressed as ml/ml. This ratio is taken at the nadir of sub-maximal exercise and is a measure of lung function. • VT=tidal volume in liters; RR=breaths per minute • VT=volume in ml at each inspiration, ti=inspiratory time. VT/ti is the inspiratory drive (effort) in ml/second. • VT=tidal volume in liters at constant body temperature pressure status. • VCO2=liters/minute of expired CO2 • RR=breaths per minute. VT/RR=tidal volume in liters per breath.

[5] = test system: patient at risk for COPD (No COPD); assay: Pulmonary function during moderate sub-maximum step exercise, patient without COPD; conditions: Patient 5, No COPD, post ribose
Method: Four patients presenting with chronic obstructive pulmonary disease were tested for various parameters of pulmonary function as described in Example 1. Baseline measurements of pulmonary function were taken during moderate, sub-maximum step exercise. Patients were instructed to self-administer five grams of ribose four times a day. After eight weeks, pulmonary function was again measured during moderate exercise.
In Table II, the units are: • VD=volume of the dead space; VT=tidal volume in liters per minute. The ratio VD/VT can be expressed as ml/ml. This ratio is taken at the nadir of sub-maximal exercise and is a measure of lung function. • VT=tidal volume in liters; RR=breaths per minute • VT=volume in ml at each inspiration, ti=inspiratory time. VT/ti is the inspiratory drive (effort) in ml/second. • VT=tidal volume in liters at constant body temperature pressure status. • VCO2=liters/minute of expired CO2 • RR=breaths per minute. VT/RR=tidal volume in liters per breath.
Table II illustrates that no one measurement or ratio is predictive of the clinical state of COPD and response to ribose administration. […] One goal of this study was to determine whether the progression of pulmonary dysfunction in such a patient could be slowed or halted over time.

[6] = FIG. 2, single patient, after eight weeks of ribose supplementation, during exercise

## O=C[C@H](O)[C@H](O)[C@H](O)CO [D-ribose]
[1]; Post-R: D-ribose 15 grams tid for eight weeks, 2 females and 13 males, Pre-R 1.00 +/− 0.28, p < 0.028
  VO2 uptake efficiency: 1.30 +/− 0.28
[1]; Post-R: D-ribose 15 grams tid for eight weeks, 2 females and 13 males, Pre-R 7.45 +/− 1.8, p < 0.05
  O2 pulse: 9.04 +/− 1.9
[1]; Post-R: D-ribose 15 grams tid for eight weeks, 2 females and 13 males, up to anaerobic threshold, Pre-R 50.6 +/− 9.8, p < 0.01
  Ventilatory efficiency: 41.6 +/− 6.4
[1]; after eight weeks of D-ribose versus baseline
  improvement of VE: about 20%
[1]; based on VO2 at the anaerobic threshold, several of the patients, after eight weeks
  Weber functional class: reclassified into a higher, that is, less severe, Weber functional class
[2]; obese person on nasal oxygen, drug-driven simulated exercise, ribose five grams four times daily, eight weeks, baseline 63.0
  VE slope: 35.2
[2]; obese person, ribose five grams four times daily, eight weeks
  need for nasal oxygen: able to discontinue the oxygen
[2]; obese person, ribose five grams four times daily, eight weeks, baseline 7.43 minutes
  time of simulated exercise: 11.44 min
[2]; person, coronary artery blockage with stable angina, treadmill, ribose five grams four times a day, eight weeks, baseline 60.2
  VE slope: 45.5
[2]; person, nine minutes of submaximal exercise, ribose five grams four times a day, eight weeks, baseline 55.7
  VE slope: 45.2
[2]; person, second test after eight weeks of ribose, initial test rated good
  step test subjective rating: great
[3]
  use of rescue inhaler and exercise tolerance: able to discontinue the use of the rescue inhaler and to exercise more without breathlessness symptoms
[4]; FIG. 1, single patient, after eight weeks of ribose supplementation
  slope of respiratory rate plotted against tidal volume: decreased slope
[4]; [6]
  VE value: 42 L/min
  tidal volume: 0.9 L
[4]; Patient 1 (asthmatic with COPD), nadir of sub-maximal exercise, baseline 0.304
  VD/VT: 0.253 ml/ml
[4]; Patient 1, baseline 0.059
  VT/RR: 0.065 liters per breath
[4]; Patient 1, baseline 1.038
  VCO2: 1.050 L/min
[4]; Patient 1, baseline 1.54
  VTBTPS (tidal volume): 1.92 L
[4]; Patient 1, baseline 1492
  VT/ti (inspiratory drive): 1827 mL/s
[4]; Patient 2 (COPD), baseline 0.439
  VD/VT: 0.303 ml/ml
[4]; Patient 2, baseline 0.036
  VT/RR: 0056 liters per breath
[4]; Patient 2, baseline 0.460
  VCO2: 0.460 L/min
[4]; Patient 2, baseline 0.830
  VTBTPS (tidal volume): 1.04 L
[4]; Patient 2, baseline 779
  VT/ti (inspiratory drive): 752 mL/s
[4]; Patient 3 (COPD), baseline 0.198
  VD/VT: 0.221 ml/ml
[4]; Patient 3, baseline 0.041
  VT/RR: 0.046 liters per breath
[4]; Patient 3, baseline 0.280
  VCO2: 0.454 L/min
[4]; Patient 3, baseline 0.614
  VTBTPS (tidal volume): 0.873 L
[4]; Patient 3, baseline 373
  VT/ti (inspiratory drive): 706 mL/s
[4]; Patient 4 (COPD), baseline 0.475
  VD/VT: 0.280 ml/ml
[4]; Patient 4, baseline 0.013
  VT/RR: 0.018 liters per breath
[4]; Patient 4, baseline 0.310
  VCO2: 0.814 L/min
[4]; Patient 4, baseline 0.550
  VTBTPS (tidal volume): 0.800 L
[4]; Patient 4, baseline 937
  VT/ti (inspiratory drive): 1590 mL/s
[5]; baseline 0.090
  VT/RR: 0.100 liters per breath
[5]; baseline 0.212
  VD/VT: 0.221 ml/ml
[5]; baseline 0.990
  VCO2: 1.26 L/min
[5]; baseline 1.90
  VTBTPS (tidal volume): 2.40 L
[5]; baseline 1636
  VT/ti (inspiratory drive): 2232 mL/s
